Data from EP0245669B1, “Pharmaceutical preparation for preventing damage to living cells by free radicals, or for increasing the efficacy of organic sulphur compounds, and process for increasing the life span of isolated organs” (Medopharm Arzneimittelwerk Dr. Zillich GmbH & Co., priority 1986, dated 1987).

Legend:
[1] = system: weiblichen C3H Mäusen; test: Radiation protection: survival of mice after gamma irradiation (cobalt-60) following i.p. pretreatment; format: in vivo, Mäuse; settings: for Ueberlebensrate nach Bestrahlung mit 9 Gy % / Ueberlebensrate nach Bestrahlung mit 9 Gy Anzahl: 10 min before 9 Gy; for Ueberlebensrate nach Bestrahlung mit 9 Gy Anzahl / Ueberlebensrate nach Bestrahlung mit 10 Gy Anzahl / Ueberlebensrate nach Bestrahlung mit 11 Gy Anzahl: surviving/irradiated mice; for Ueberlebensrate nach Bestrahlung mit 11 Gy % / Ueberlebensrate nach Bestrahlung mit 11 Gy Anzahl: 30 min before 11 Gy
From the text: In den nachfolgenden Beispielen wurde die synergistische Wirkung der durch die erfindungsgemässe Verwendung hergestellten pharmazeutischen Präparate mit organische Schwefelverbindungen enthaltenden Präparaten anhand des Strahlenschutzes getestet und es wurde auch die Strahlenschutzwirkung der Zinkionen enthaltenden Präparate mit bisher bekannten Strahlenschutzpräparaten an Mäusen getestet. Die Versuche wurden mit weiblichen C3H Mäusen (GL. Bomholtgard, Ry, Dänemark) durchgeführt, die 20 bis 22 g wogen. Die Mäuse wurden unter Bedingungen gehalten, wo sie so viel Standard-Nagetierfutter (Nafag Pellts) fressen und so viel Leitungswasser trinken können, wie sie wollten. Die Bestrahlung erfolgte mit Gammastrahlen aus einer Kobalt-60 Quelle. Es wurden unterschiedliche Bestrahlungen vorgenommen, und zwar mit 9 Gy, 10 Gy, 11 Gy, 12 Gy, 13 Gy und 14 Gy.
10 Minuten vor der Bestrahlung, 30 Minuten vor der Bestrahlung oder 120 Minuten vor der Bestrahlung wurde ein durch die erfindungsgemässe Verwendung hergestelltes synergistisch wirkendes pharmazeutisches Präparat, bzw. ein entsprechendes, Zinkionen enthaltendes Strahlenschutzpräparat oder ein aus dem Stand der Technik bekanntes Strahlenschutzpräparat zu Vergleichszwecken durch intraperitoneale Injektion verabreicht.
Bei der Gruppe der Mäuse zu Vergleichszwecken, die ohne Verabreichung eines Strahlenschutzpräparates bestrahlt wurden, erfolgte 10 Minuten vor der Bestrahlung die Verabreichung von destilliertem Wasser. Bei diesen unbehandelten Mäusen überlebten nur 50% der Tiere eine Bestrahlung von 8 Gy, d.h. der LD₅₀-Wert betrug 8 Gy.
Nach den Arbeitsweisen der vorangegangenen Beispiele 1 bis 4, wurden weitere Tests mit den genannten weiblichen Mäusen durchgeführt, und zwar unter Verwendung der angeführten Zinksalze. Die bei diesen Tests erzielten Ergebnisse sind in der nachfolgenden Tabelle I zusammengestellt. Für jede der angewandten Bestrahlungsstärken ist in der Rubrik "Anzahl" diejenige Anzahl der Mäuse angeführt, welche die Bestrahlung überlebten, geteilt durch die Gesamtzahl der Mäuse, welche bestrahlt wurden. Ein entsprechender Wert von 1/10 bedeutet also, dass von 10 bestrahlten Mäusen eine überlebt hatte. In der Spalte mit der Bezeichnung "Prozent", ist die Prozent-Ueberlebensrate angeführt. Bei einer überlebenden Maus pro 10 getesteten Mäusen beträgt diese Ueberlebensrate 10 %.
Zu Vergleichszwecken sind in der nachfolgenden Tabelle III die Ueberlebensraten von Mäusen zusammengestellt, die nach dem in Beispiel 5 beschriebenen Verfahren einer Vorbehandlung mit einem bekannten schwefelhaltigen Strahlenschutzmittel unterworfen worden waren. Orientierende Vorversuche hatten gezeigt, dass diese Strahlenschutzmittel bereits ihre Wirkung verloren hatten, wenn sie zwei Stunden vor der Einwirkung der Bestrahlung verabreicht worden waren. Die Bestrahlung wurde, wie aus der Tabelle ersichtlich ist, zwei Minuten nach der Verabreichung, in den meisten Fällen 10 Minuten nach der Verabreichung, aber auch 30 Minuten, bzw. 120 Minuten nach der Verabreichung durchgeführt. Die Werte deuten darauf hin, dass 30 Minuten nach der Verabreichung die Schutzwirkung schon wieder deutlich nachgelassen hat. Für jede Bestrahlungsstärke ist wiederum die Anzahl der Tiere angeführt, die nach 30 Tagen überlebt haben, geteilt durch die Gesamtzahl der Tiere, die behandelt und bestrahlt worden waren.
Anhand dieses Beispiels soll die synergistische Wirkung von Zinkionen und Schwefelverbindungen bezüglich eines Strahlenschutzes erläutert werden. Es wurde wieder in der gleichen Weise gearbeitet, wie in den vorangegangenen Beispielen 1 bis 3, bzw. 5, und es wurde auch die gleiche Art an weiblichen Mäusen getestet. Die Verabreichung der Zinkionen enthaltenden Lösung und der Lösung der Schwefelverbindung erfolgte entweder nacheinander oder gleichzeitig durch intraperitoneale Injektion.
In allen Fällen wurde die Ueberlebensrate 30 Tage nach der Einwirkung der Bestrahlung bestimmt.

[2] = system: Mäuse; test: Toxicity of the zinc salts used as radiation protection agents (LD50); format: in vivo
Protocol: In diesem Beispiel wurde die Toxizität der als Strahlenschutzmittel eingesetzten Zinksalze getestet.
Der LD₅₀-Wert betrug für das Zinkaspartat 55 mg/kg Körpergewicht, für das Zinkchlorid 24 mg/kg Körpergewicht und für das Zinksulfat 45 mg/kg Körpergewicht.

[3] = Table II: 10 mg/kg i.p., 30 min before 10 Gy
[4] = Table II: 15 mg/kg i.p., 30 min before 10 Gy
[5] = Table II, Zinksulfat: 15 mg/kg i.p.
[6] = Table II, Zinksulfat: 15 mg/kg i.p., 10 min before 10 Gy
[7] = Table II, Zinksulfat: 30 mg/kg i.p.
[8] = Table II, Zinksulfat: 30 mg/kg i.p., 10 min before 10 Gy
[9] = Table II, Zinksulfat: 22,5 mg/kg i.p.
[10] = Table II, Zinksulfat: 22,5 mg/kg i.p., 10 min before 10 Gy

In the case of `[Cl-].[Cl-].[Zn+2]` [Zinkchlorid], the “Ueberlebensrate nach Bestrahlung mit 9 Gy %” value ([1]; Table II: 10 mg/kg i.p.) is reported as 20%, the “Ueberlebensrate nach Bestrahlung mit 9 Gy Anzahl” value ([1]; Table II: 10 mg/kg i.p.) is reported as 2/10 and the “Ueberlebensrate nach Bestrahlung mit 10 Gy %” value [1, 3] is reported as 15%. For the same compound, the “Ueberlebensrate nach Bestrahlung mit 10 Gy Anzahl” value [1, 3] was 3/20, the “Ueberlebensrate nach Bestrahlung mit 9 Gy %” value ([1]; Table II: 15 mg/kg i.p.) was 30% and the “Ueberlebensrate nach Bestrahlung mit 9 Gy Anzahl” value ([1]; Table II: 15 mg/kg i.p.) was 3/30. For the same compound, the “Ueberlebensrate nach Bestrahlung mit 10 Gy %” value [1, 4] was 20%, the “Ueberlebensrate nach Bestrahlung mit 10 Gy Anzahl” value [1, 4] was 4/20 and the “Ueberlebensrate nach Bestrahlung mit 9 Gy %” value ([1]; Table II: 20 mg/kg i.p.) was 10%. For the same compound, the “Ueberlebensrate nach Bestrahlung mit 9 Gy Anzahl” value ([1]; Table II: 20 mg/kg i.p.) was 0/10 and the LD₅₀-Wert [2] was 24 mg/kg Körpergewicht.
In the case of Zinksulfat, the “Ueberlebensrate nach Bestrahlung mit 9 Gy %” value [1, 5] is reported as 0%, the “Ueberlebensrate nach Bestrahlung mit 9 Gy Anzahl” value [1, 5] is reported as 1/10 and the “Ueberlebensrate nach Bestrahlung mit 10 Gy %” value [1, 6] is reported as 22%. For the same compound, the “Ueberlebensrate nach Bestrahlung mit 10 Gy Anzahl” value [1, 6] was 2/9, the “Ueberlebensrate nach Bestrahlung mit 11 Gy %” value [1, 5] was 0% and the “Ueberlebensrate nach Bestrahlung mit 11 Gy Anzahl” value [1, 5] was 0/20. For the same compound, the “Ueberlebensrate nach Bestrahlung mit 9 Gy Anzahl” value [1, 7] was 0/10, the “Ueberlebensrate nach Bestrahlung mit 10 Gy %” value [1, 8] was 33% and the “Ueberlebensrate nach Bestrahlung mit 10 Gy Anzahl” value [1, 8] was 3/9. The “Ueberlebensrate nach Bestrahlung mit 11 Gy %” value [1, 7] was 5%, the “Ueberlebensrate nach Bestrahlung mit 11 Gy Anzahl” value [1, 7] was 1/20 and the “Ueberlebensrate nach Bestrahlung mit 9 Gy %” value [1, 9] was 80%. The “Ueberlebensrate nach Bestrahlung mit 9 Gy Anzahl” value [1, 9] was 8/10, the “Ueberlebensrate nach Bestrahlung mit 10 Gy %” value [1, 10] was 33% and the “Ueberlebensrate nach Bestrahlung mit 10 Gy Anzahl” value [1, 10] was 3/9. The “Ueberlebensrate nach Bestrahlung mit 11 Gy %” value [1, 9] was 0%, the “Ueberlebensrate nach Bestrahlung mit 11 Gy Anzahl” value [1, 9] was 0/20 and the LD₅₀-Wert [2] was 45 mg/kg Körpergewicht.
